Test results reported in patent US12187706B2, “NLRP3 modulators” (INNATE TUMOR IMMUNITY, INC., priority 2019, dated 2025).

Molecular target: T1, NLRP3 (Homo sapiens, UniProt Q96P20)
T1 construct: host or cells: PMA-differentiated THP-1 cells
Experiment: Measurement of IL-1β production in PMA-differentiated THP-1 cells (NLRP3 hIL1B)
Type: cell-based
Experimental: Measurement of IL-1β Production in PMA-Differentiated THP-1 Cells
THP-1 cells were purchased from the American Type Culture Collection and sub-cultured according to instructions from the supplier. Prior to experiments, cells were cultured in RPMI 1640 containing 10% heat inactivated FBS, penicillin (100 units/ml) and streptomycin (100 μg/ml), and maintained in log phase prior to experimental setup. Prior to the experiment THP-1 were treated with PMA (Phorbol 12-myristate 13-acetate) (10 μg/ml) for 24 hours. The day of the experiment the media was removed and attaching cells were treated with trypsin for 2 minutes, cells were then collected, washed with PBS (phosphate buffer saline), spin down, resuspended in 2% heat inactivated FBS with RPMI at a concentration of 1×10^6 cells/ml, and 100 μl was plated in a 96 well plate. Compounds were dissolved in dimethyl sulfoxide (DMSO) and added to the culture medium to achieve desired concentration (e.g. 100, 30, 10, 3, 1, 0.3 or 0.1 μM). Cells were incubated with compounds for 4 hours. Cell free supernatant was collected and the production of IL-1β was evaluated by ELISA. A vehicle only control was run concurrently with each experiment. Final DMSO concentration was 1%.
Measurement of IL-1β Production in PMA-Differentiated THP-1 Cells (Alternative Procedure)
THP-1 cells were purchased from the American Type Culture Collection and sub-cultured according to instructions from the supplier. Prior to experiments, cells were cultured in RPMI 1640 containing 10% heat inactivated FBS, penicillin (100 units/ml), streptomycin (100 μg/ml), HEPES (10 mM) and sodium pyruvate (1 mM) and maintained in log phase prior to experimental setup. Prior to the experiment, THP-1 cells were treated with PMA (Phorbol 12-myristate 13-acetate) (20 μg/ml) overnight. The day of the experiment, the media was removed and attached cells were treated with trypsin for 2 minutes, cells were then collected, washed with PBS (phosphate buffer saline), pelleted by centrifugation and resuspended in 2% heat inactivated FBS with RPMI at a concentration of 50,000 cells/well in a 384 well plate. Cell free supernatant was collected and the production of IL-1β was evaluated by ELISA. Compounds were dissolved in dimethyl sulfoxide (DMSO) and added to the culture medium to achieve desired concentration (e.g. 100, 30, 10, 3, 1, 0.3 or 0.1 μM). Cells were incubated with compounds for 2 hours. A vehicle only control was run concurrently with each experiment. Final DMSO concentration was 1%.
Measurement of IL-1β Production—hTRF Protocol (Second Alternative Procedure)
Serial dilutions of compounds in DMSO were added to low volume 384 well plates at 100 nl/well using an ECHO 550 acoustic dispenser (Labcyte) to achieve final starting concentration of 10 μM in assay.
THP-1 cells in RPMI (Gibco, 11875) media with 10% FBS at a density of 1×10^6 cell/ml in a T175 flask were treated with a final concentration of phorbol 12-myristate 13-acetate (PMA) (Sigma, P1585) of 50 ng/ml overnight at 37° C. at 5% CO2 for differentiation. Cells were harvested the next day after rinsing well with dPBS using 0.5% trypsin. A cell solution was prepared of 1×10^6 cells/ml for 50,000 cells in 50 μl/well in RPMI media with 2% FBS. Cells were plated using a multichannel pipette onto the compound dilutions in Greiner, 384 well, black clear bottom tissue culture treated plates (781090). The plates were incubated in 37° C. incubator at 5% CO2 for 2 hours.
After the 2 hour incubation, the cell plates were spun in the centrifuge for 5 minutes at 1200 rpm. Using the Felix (CyBio), 8 μl of the supernatant was transferred to 384 well, low volume, white proxy plates. (Perkin Elmer, 6008230). A human IL1beta hTRF kit was used to analyze the supernatant (CISBIO, 62HIL1BPEG). The kit instructions were followed for preparing the IL1Beta standard curve and then the antibodies from the kit were diluted 1:40 rather than 1:20 as kit instructed.

T1 sequence (Q96P20 whole entry): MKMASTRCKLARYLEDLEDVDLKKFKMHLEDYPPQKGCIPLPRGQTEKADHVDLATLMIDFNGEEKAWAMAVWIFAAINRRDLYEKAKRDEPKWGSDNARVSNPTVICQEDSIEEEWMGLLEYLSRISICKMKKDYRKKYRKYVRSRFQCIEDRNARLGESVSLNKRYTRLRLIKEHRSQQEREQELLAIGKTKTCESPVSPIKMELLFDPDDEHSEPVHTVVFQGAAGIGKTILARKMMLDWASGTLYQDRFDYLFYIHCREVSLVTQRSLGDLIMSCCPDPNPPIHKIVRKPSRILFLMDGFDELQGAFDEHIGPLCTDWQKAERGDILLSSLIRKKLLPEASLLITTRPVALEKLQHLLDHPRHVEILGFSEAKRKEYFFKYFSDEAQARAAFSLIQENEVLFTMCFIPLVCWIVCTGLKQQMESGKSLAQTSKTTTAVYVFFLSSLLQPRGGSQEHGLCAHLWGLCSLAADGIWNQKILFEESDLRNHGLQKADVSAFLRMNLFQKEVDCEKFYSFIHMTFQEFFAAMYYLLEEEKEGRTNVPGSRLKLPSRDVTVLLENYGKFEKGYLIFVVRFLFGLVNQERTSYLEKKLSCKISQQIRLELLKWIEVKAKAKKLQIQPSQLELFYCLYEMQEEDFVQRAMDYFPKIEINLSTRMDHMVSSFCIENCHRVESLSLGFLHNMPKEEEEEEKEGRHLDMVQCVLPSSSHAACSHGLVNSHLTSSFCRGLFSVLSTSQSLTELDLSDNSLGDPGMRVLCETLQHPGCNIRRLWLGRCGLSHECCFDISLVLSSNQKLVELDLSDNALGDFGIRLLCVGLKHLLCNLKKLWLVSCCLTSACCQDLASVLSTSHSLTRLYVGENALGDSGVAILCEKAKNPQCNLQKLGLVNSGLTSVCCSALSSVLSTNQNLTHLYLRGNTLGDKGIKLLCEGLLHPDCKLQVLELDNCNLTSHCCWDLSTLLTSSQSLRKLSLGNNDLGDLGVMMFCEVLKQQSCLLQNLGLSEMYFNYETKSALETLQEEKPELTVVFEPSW

Row | EC50 | Structure (SMILES)
1 | 1860 nM | Nc1nc(NC[C@@H](O)CO)c2ccc(-c3ccn[nH]3)cc2n1 [Example 69]
2 | 800 nM | Nc1nc(NC[C@H](O)CO)c2ccc(-c3ccn[nH]3)cc2n1 [Example 70]
3 | 640 nM | Nc1nc(NCc2ccno2)c2ccc(-c3ccn[nH]3)cc2n1 [Example 71]
4 | 530 nM | COCC(O)CNc1nc(N)nc2cc(-c3ccn[nH]3)ccc12 (stereo not shown) [Example 72]
5 | 230 nM | CC(C)(CO)CNc1nc(N)nc2cc(-c3ccn[nH]3)ccc12 [Example 73]
6 | 780 nM | Nc1nc(NC(CO)CO)c2ccc(-c3ccn[nH]3)cc2n1 [Example 74]
7 | 5520 nM | Cn1cncc1CNc1nc(N)nc2cc(-c3ccn[nH]3)ccc12 [Example 75]
8 | 760 nM | COCc1noc(CNc2nc(N)nc3cc(-c4ccn[nH]4)ccc23)n1 [Example 76]
9 | 630 nM | Nc1nc(NCC(F)F)c2ccc(-c3ccn[nH]3)cc2n1 [Example 78]
10 | 710 nM | Cc1cnc(CNc2nc(N)nc3cc(-c4ccn[nH]4)ccc23)cn1 [Example 80]
11 | 1200 nM | Cc1noc(C)c1CNc1nc(N)nc2cc(-c3ccn[nH]3)ccc12 [Example 81]
12 | 3650 nM | NC(=O)CC(Nc1nc(N)nc2cc(-c3ccn[nH]3)ccc12)c1cccnc1 (stereo not shown) [Example 82]
13 | 2410 nM | CC(CO)(CO)Nc1nc(N)nc2cc(-c3ccn[nH]3)ccc12 [Example 83]
14 | 280 nM | CNc1nc(N)nc2cc(-c3ccn[nH]3)ccc12 [Example 84]
15 | 230 nM | Nc1nc(NCCCCO)c2ccc(-c3ccn[nH]3)cc2n1 [Example 85]
16 | 220 nM | Nc1nc(NCCCCCO)c2ccc(-c3ccn[nH]3)cc2n1 [Example 86]
17 | 1630 nM | Nc1nc(NCc2cnc[nH]2)c2ccc(-c3ccn[nH]3)cc2n1 [Example 87]
18 | 220 nM | Nc1nc(NCC(F)(F)CO)c2ccc(-c3ccn[nH]3)cc2n1 [Example 88]
19 | 460 nM | CC(C)(O)CCNc1nc(N)nc2cc(-c3ccn[nH]3)ccc12 [Example 89]

Row | EC50 | Structure (SMILES)
20 | 830 nM | C[C@]1(O)CC[C@@H](Nc2nc(N)nc3cc(-c4ccn[nH]4)ccc23)CC1 [Example 90]
21 | 1300 nM | CC(C)(CO)CCCNc1nc(N)nc2cc(-c3ccn[nH]3)ccc12 [Example 91]
22 | 180 nM | COCCCNc1nc(N)nc2cc(-c3ccn[nH]3)ccc12 [Example 94]
23 | 630 nM | CCCCONc1nc(N)nc2cc(-c3ccn[nH]3)ccc12 [Example 95]
24 | 210 nM | COCCNc1nc(N)nc2cc(-c3ccn[nH]3)ccc12 [Example 102]
25 | 370 nM | CCOCCNc1nc(N)nc2cc(-c3ccn[nH]3)ccc12 [Example 103]
26 | 390 nM | Nc1nc(N[C@@H]2CCCOC2)c2ccc(-c3ccn[nH]3)cc2n1 [Example 104]
27 | 1980 nM | Nc1nc(NC2CCCOC2)c2ccc(-c3ccn[nH]3)cc2n1 (stereo not shown) [Example 105]
28 | 500 nM | Nc1nc(NCC#CCO)c2ccc(-c3ccn[nH]3)cc2n1 [Example 106]
29 | 400 nM | Nc1nc(Nc2ccccc2)c2ccc(-c3ccn[nH]3)cc2n1 [Example 111]
30 | 240 nM | Nc1nc(Nc2cn[nH]c2)c2ccc(-c3ccn[nH]3)cc2n1 [Example 112]
31 | 2230 nM | Nc1nc(Nc2ccon2)c2ccc(-c3ccn[nH]3)cc2n1 [Example 113]
32 | 370 nM | Nc1nc(Nc2cnoc2)c2ccc(-c3ccn[nH]3)cc2n1 [Example 114]
33 | 18000 nM | Nc1nc(Nc2ccn(CCO)n2)c2ccc(-c3ccn[nH]3)cc2n1 [Example 115]
34 | 500 nM | Nc1nc(Nc2cc(CCO)[nH]n2)c2ccc(-c3ccn[nH]3)cc2n1 [Example 116]
35 | 490 nM | Nc1nc(NCCc2ccccn2)c2ccc(-c3cc[nH]n3)cc2n1 [Example 119]
36 | 680 nM | Nc1nc(N2CCCOCC2)c2ccc(-c3cc[nH]n3)cc2n1 [Example 120]
37 | 1850 nM | Nc1nc(N[C@@H]2CCOC2)c2ccc(-c3cc[nH]n3)cc2n1 [Example 121]
38 | 1110 nM | Nc1nc(NCCc2ccccn2)c2c(F)cc(-c3cc[nH]n3)cc2n1 [Example 122]

Second part, the compound before the results:

Row | Structure (SMILES) | EC50
39 | Nc1nc(NC(CO)c2cc[nH]n2)c2ccc(-c3ccn[nH]3)cc2n1 (stereo not shown) [Example 33] | 5390 nM
40 | Nc1nc(NC(CO)c2ncc[nH]2)c2ccc(-c3ccn[nH]3)cc2n1 (stereo not shown) [Example 34] | 7670 nM
41 | Nc1nc(NC(CO)c2nccs2)c2ccc(-c3ccn[nH]3)cc2n1 (stereo not shown) [Example 35] | 5530 nM
42 | C[C@H](O)CNc1nc(N)nc2cc(-c3ccn[nH]3)ccc12 [Example 36] | 710 nM
43 | Nc1nc(NCC2(O)CCOCC2)c2ccc(-c3ccn[nH]3)cc2n1 [Example 37] | 870 nM
44 | Nc1nc(NCC2(O)CCC2)c2ccc(-c3ccn[nH]3)cc2n1 [Example 38] | 320 nM
45 | Nc1nc(NCc2ncc[nH]2)c2ccc(-c3ccn[nH]3)cc2n1 [Example 39] | 1320 nM
46 | CN(C)CC(O)CNc1nc(N)nc2cc(-c3ccn[nH]3)ccc12 (stereo not shown) [Example 40] | 2240 nM
47 | Nc1nc(NCC(O)CC(F)(F)F)c2ccc(-c3ccn[nH]3)cc2n1 (stereo not shown) [Example 41] | 760 nM
48 | Nc1nc(NCC2CCC(=O)N2)c2ccc(-c3ccn[nH]3)cc2n1 (stereo not shown) [Example 43] | 1040 nM
49 | Nc1nc(NCc2cc3n(n2)CCCO3)c2ccc(-c3ccn[nH]3)cc2n1 [Example 44] | 2150 nM
50 | Nc1nc(NCCO)c2ccc(-c3ccn[nH]3)cc2n1 [Example 45] | 450 nM
51 | Nc1nc(N[C@@H]2CC[C@@H](O)C2)c2ccc(-c3ccn[nH]3)cc2n1 [Example 46] | 210 nM
52 | Nc1nc(N[C@H]2CC[C@H](O)C2)c2ccc(-c3ccn[nH]3)cc2n1 [Example 47] | 550 nM
53 | COc1ncc(CNc2nc(N)nc3cc(-c4ccn[nH]4)ccc23)cn1 [Example 48] | 2920 nM
54 | Nc1nc(NCc2cncnc2)c2ccc(-c3ccn[nH]3)cc2n1 [Example 49] | 460 nM

Row | Structure (SMILES) | EC50
55 | Nc1nc(NCc2ccncn2)c2ccc(-c3ccn[nH]3)cc2n1 [Example 50] | 1870 nM
56 | Nc1nc(NCc2ncccn2)c2ccc(-c3ccn[nH]3)cc2n1 [Example 51] | 320 nM
57 | Nc1nc(NCc2cnccn2)c2ccc(-c3ccn[nH]3)cc2n1 [Example 52] | 780 nM
58 | Nc1nc(N[C@H]2COCC[C@@H]2O)c2ccc(-c3ccn[nH]3)cc2n1 [Example 53] | 1350 nM
59 | Nc1nc(N[C@H](CO)Cc2c[nH]cn2)c2ccc(-c3ccn[nH]3)cc2n1 [Example 54] | 4010 nM
60 | Nc1nc(NC2CCS(=O)(=O)CC2)c2ccc(-c3ccn[nH]3)cc2n1 [Example 55] | 19700 nM
61 | N#CCCNc1nc(N)nc2cc(-c3ccn[nH]3)ccc12 [Example 58] | 700 nM
62 | Nc1nc(NCc2ccnnc2)c2ccc(-c3ccn[nH]3)cc2n1 [Example 60] | 3490 nM
63 | Nc1nc(NCc2ncco2)c2ccc(-c3ccn[nH]3)cc2n1 [Example 61] | 220 nM
64 | Nc1nc(NC(CO)c2cccnc2)c2ccc(-c3ccn[nH]3)cc2n1 (stereo not shown) [Example 62] | 1250 nM
65 | Nc1nc(N[C@H]2CC[C@@H](CO)C2)c2ccc(-c3ccn[nH]3)cc2n1 [Example 63] | 1750 nM
66 | C[C@@H](O)[C@@H](CO)Nc1nc(N)nc2cc(-c3ccn[nH]3)ccc12 [Example 64] | 3730 nM
67 | Nc1nc(NC2(CO)CC2)c2ccc(-c3ccn[nH]3)cc2n1 [Example 65] | 250 nM
68 | Nc1nc(N[C@H]2CCC[C@H]2O)c2ccc(-c3ccn[nH]3)cc2n1 [Example 66] | 740 nM
69 | Nc1nc(N[C@H]2CCCC[C@H]2O)c2ccc(-c3ccn[nH]3)cc2n1 [Example 67] | 2260 nM
70 | Nc1nc(N[C@@H]2CCCC[C@@H]2O)c2ccc(-c3ccn[nH]3)cc2n1 [Example 68] | 1100 nM
